Values of other authors as cited in patent publication US20120282187A1 (BOEHRINGER INGELHEIM INTERNATIONAL GMBH, priority 2008, published 2012).

Assays:
[1] = system: patients with non-valvular atrial fibrillation; settings: in vivo; cited from earlier work
[2] = system: patients with atrial fibrillation; settings: sub-cutaneous; cited from earlier work

Compound: CCOC(=O)CN[C@@H](C(=O)N1CC[C@H]1C(=O)NCc1ccc(/C(N)=N\O)cc1)C1CCCCC1 [ximelagatran]
- hepatotoxicity [1]: hepatotoxic

Compound: CO[C@H]1O[C@H](COS(=O)(=O)O)[C@@H](O[C@@H]2O[C@@H](C(=O)O)[C@@H](O[C@H]3O[C@H](COS(=O)(=O)O)[C@@H](O[C@@H]4O[C@H](C(=O)O)[C@@H](O[C@H]5O[C@H](COS(=O)(=O)O)[C@@H](OC)[C@H](OC)[C@H]5OC)[C@H](OC)[C@H]4OC)[C@H](OS(=O)(=O)O)[C@H]3OS(=O)(=O)O)[C@H](OC)[C@H]2OC)[C@H](OS(=O)(=O)O)[C@H]1OS(=O)(=O)O [idraparinux]
- efficacy compared to warfarin [2]: more effective than warfarin
- risk of bleeding compared to warfarin [2]: substantially higher risk of bleeding
